{"source": "ChEMBL document CHEMBL2074484", "about": "“Molecular cloning and characterization of two novel human renal organic anion transporters (hOAT1 and hOAT3)” (Biochem Biophys Res Commun, 1999)", "assay_type_in_all_cases": "functional, cell-based", "conditions_in_all_cases": "oocyte", "key": {"[1]": {"biological_target": "T1, Organic anion transporter 3 (Homo sapiens, UniProt Q8TCC7)", "T1 sequence (Q8TCC7 whole entry)": "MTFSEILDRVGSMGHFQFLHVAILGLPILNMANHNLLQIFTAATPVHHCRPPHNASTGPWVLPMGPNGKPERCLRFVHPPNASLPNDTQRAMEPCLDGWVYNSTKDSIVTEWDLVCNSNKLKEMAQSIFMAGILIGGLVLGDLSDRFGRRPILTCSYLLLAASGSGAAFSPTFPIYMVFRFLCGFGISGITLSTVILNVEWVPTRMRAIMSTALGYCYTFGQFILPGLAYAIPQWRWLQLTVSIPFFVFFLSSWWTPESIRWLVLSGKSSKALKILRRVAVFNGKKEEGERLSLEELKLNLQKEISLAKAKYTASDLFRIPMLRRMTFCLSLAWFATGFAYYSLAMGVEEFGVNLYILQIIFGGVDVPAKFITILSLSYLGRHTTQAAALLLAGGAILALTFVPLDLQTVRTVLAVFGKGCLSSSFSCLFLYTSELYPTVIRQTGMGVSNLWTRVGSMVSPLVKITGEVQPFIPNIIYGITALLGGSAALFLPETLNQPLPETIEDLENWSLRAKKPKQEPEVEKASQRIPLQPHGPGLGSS", "assay": "(§1) TP_TRANSPORTER: uptake in Xenopus laevis oocytes"}, "[2]": {"biological_target": "T2, Solute carrier family 22 member 6 (Homo sapiens, UniProt Q4U2R8)", "T2 sequence (Q4U2R8 whole entry)": "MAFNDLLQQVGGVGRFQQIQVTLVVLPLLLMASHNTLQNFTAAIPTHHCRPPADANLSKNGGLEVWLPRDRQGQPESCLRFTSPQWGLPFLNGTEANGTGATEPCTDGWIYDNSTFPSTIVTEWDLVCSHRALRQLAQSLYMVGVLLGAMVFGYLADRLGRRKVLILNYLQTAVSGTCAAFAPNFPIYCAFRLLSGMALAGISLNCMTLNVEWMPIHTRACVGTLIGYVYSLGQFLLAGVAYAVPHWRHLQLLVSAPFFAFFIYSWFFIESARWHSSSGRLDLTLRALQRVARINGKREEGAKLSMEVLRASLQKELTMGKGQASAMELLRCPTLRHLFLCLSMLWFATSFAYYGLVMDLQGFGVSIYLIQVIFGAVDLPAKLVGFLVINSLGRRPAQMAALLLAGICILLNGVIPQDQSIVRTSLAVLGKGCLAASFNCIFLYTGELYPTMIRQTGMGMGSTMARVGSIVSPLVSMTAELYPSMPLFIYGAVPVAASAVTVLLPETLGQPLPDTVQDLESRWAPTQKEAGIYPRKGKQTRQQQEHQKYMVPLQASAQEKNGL", "assay": "TP_TRANSPORTER: inhibition of PAH uptake (PAH: 1 uM, Bumetamide: 100 uM) in Xenopus laevis oocytes"}, "[3]": {"biological_target": "T2, Solute carrier family 22 member 6", "assay": "TP_TRANSPORTER: inhibition of PAH uptake (PAH: 1 uM, Hydrochlorothiazide: 100 uM) in Xenopus laevis oocytes"}, "[4]": {"biological_target": "T2, Solute carrier family 22 member 6", "assay": "TP_TRANSPORTER: inhibition of PAH uptake (PAH: 1 uM, Losartan: 100 uM) in Xenopus laevis oocytes"}, "[5]": {"biological_target": "T2, Solute carrier family 22 member 6", "assay": "as §1"}, "[6]": {"biological_target": "T2, Solute carrier family 22 member 6", "assay": "TP_TRANSPORTER: inhibition of PAH uptake (PAH: 1 uM, Urate: 100 uM) in Xenopus laevis oocytes"}}}
{"smiles": "Nc1ccc(C(=O)NCC(=O)O)cc1", "note": "[AMINOHIPPURIC ACID]", "values": [{"measurement": "Activity", "setting": "[1]", "result": "is not a substrate [-]"}]}
{"smiles": "CCCCNc1cc(C(=O)O)cc(S(N)(=O)=O)c1Oc1ccccc1", "note": "[BUMETANIDE]", "values": [{"measurement": "Activity", "setting": "[2]", "result": "inhibitor [(at a rough estimate) 45 % of control]"}]}
{"smiles": "NS(=O)(=O)c1cc2c(cc1Cl)NCNS2(=O)=O", "note": "[HYDROCHLOROTHIAZIDE]", "values": [{"measurement": "Activity", "setting": "[3]", "result": "is not an inhibitor [-]"}]}
{"smiles": "CCCCc1nc(Cl)c(CO)n1Cc1ccc(-c2ccccc2-c2nn[nH]n2)cc1", "note": "[LOSARTAN]", "values": [{"measurement": "Activity", "setting": "[4]", "result": "inhibitor [(at a rough estimate) 25 % of control]"}]}
{"smiles": "O=C([O-])C(=O)[O-].[Na+].[Na+]", "note": "[SODIUM OXALATE]", "values": [{"measurement": "Activity", "setting": "[1]", "result": "is not a substrate [-]"}]}
{"smiles": "CC[N+](CC)(CC)CC", "note": "[TETRYLAMMONIUM]", "values": [{"measurement": "Activity", "setting": "[1]", "result": "is not a substrate [-]"}]}
{"smiles": "O=c1[nH]c(=O)c2[nH]c(=O)[nH]c2[nH]1", "note": "[URIC ACID]", "values": [{"measurement": "Activity", "setting": "[1]", "result": "is not a substrate [-]"}, {"measurement": "Activity", "setting": "[5]", "result": "is not a substrate [-]"}, {"measurement": "Activity", "setting": "[6]", "result": "is not an inhibitor [-]"}]}
